Values quoted from earlier work in patent publication US9339030B2, “Foamable pesticide compositions and methods of application” (BASF Corporation, priority 2009, dated 2016).

Tests used:
termites = details: general statement, no experiment described
ants = details: general statement, no experiment described

N#Cc1nn(-c2c(Cl)cc(C(F)(F)F)cc2Cl)c(N)c1[S+]([O-])C(F)(F)F (racemic) [fipronil, (±)-5-amino-1-(2,6-dichloro-α,α,α-trifluoro-p-tolyl)-4-trifluoromethylsulfinylpyrazole-3-carbonitrile]
dose toxic to termites (termites): 2 nanograms per termite
dose toxic to ants (ants): about 1 nanogram per ant
